Results from paper PMC7822874, “Chemoprotective antimalarials identified through quantitative high-throughput screening of Plasmodium blood and liver stage parasites” (Scientific Reports, 2021).
Like-named read-outs stand apart in the source and are kept apart here.

How the values were obtained:
in vitro = conditions: human
[1] = test system: P. berghei-ANKA-GFP-LucCON liver stage parasites in HepG2-A16-CD81EGFP cells; experiment: P. berghei liver stage Pb-Luc assay, Method 1 (UCSD, 1536-well); type: cell-based, Plasmodium berghei; conditions: Plasmodium berghei, 48 h, average of 2 wells on a 1536 well plate; for activity at 1 µM: 1 uM (compounds provided at 10 mM); for activity at 3 µM: 3 uM (compounds provided at 10 mM)
[2] = test system: Plasmodium falciparum Dd2 asexual blood stage parasites; experiment: microbe, parasite or virus in culture; parameters: species or system Plasmodium falciparum Dd2 in human erythrocytes; single determination (one 11-point concentration-response curve); conditions: Plasmodium falciparum, DD2, Erythrocyte, 72 h
[3] = HepG2-A16-CD81EGFP cells, uninfected
[4] = column 11, read-out: Pb-Luc (P. berghei liver stage), % of control, lower concentration, first repeat
[5] = column 12, read-out: Pb-Luc (P. berghei liver stage), % of control, lower concentration, second repeat
[6] = column 8, read-out: Pb-Luc (P. berghei liver stage), % of control, higher concentration, first repeat
[7] = column 9, read-out: Pb-Luc (P. berghei liver stage), % of control, higher concentration, second repeat

**Q.** With `COc1ccccc1-c1nnc2sc(COc3ccc(F)cc3)nn12` [MLS000042616-01] as the compound, how does the viability at 48 h (in vitro; [3]) read?
**A.** Its viability at 48 h is 102%.

**Q.** What about the viability at 48 h, 1 µM (in vitro; [3]) of the same compound?
**A.** The viability at 48 h, 1 µM was 102%.

**Q.** For `C=CCNc1nc(N(c2ccccc2)c2ccccc2)nc(-n2ccnc2)n1` [MLS000045718-01], which viability at 66 h (in vitro; [3]) is on record?
**A.** Its viability at 66 h is 107%.

**Q.** Which results are given for `CCCN(CCC)C(=O)Cn1ccc(=N)c2ccccc21` [MLS000047676-01]?
**A.** viability at 48 h, 1 µM (in vitro; [3]): 95%; viability at 48 h, 3 µM (in vitro; [3]): 87%

**Q.** What does the source list for `COc1cccc(N2C(N)=NC(N)=NC2(C)C)c1` [MLS000047853-01]?
**A.** viability at 48 h (in vitro; [3]): 103%; viability at 48 h, 1 µM (in vitro; [3]): 103%

**Q.** Which results are given for `CCOc1cc(C2NCc3ccccc3-n3cccc32)ccc1O` (stereo not drawn) [MLS000047991-01]?
**A.** viability at 48 h, 1 µM (in vitro): 97%; viability at 48 h, 3 µM (in vitro): 95%

**Q.** Which activity at 1 µM [1, 4] does the source give for `COc1cccc(OCCn2cc(C(=O)c3ccco3)c3ccccc32)c1` [MLS000050800-01] here?
**A.** The activity at 1 µM was 134%.

**Q.** And the activity at 1 µM [1, 5]?
**A.** Its activity at 1 µM is 132%.

**Q.** And the activity at 3 µM [1, 6]?
**A.** Its activity at 3 µM is 134%.

**Q.** And the activity at 3 µM [1, 7]?
**A.** The activity at 3 µM was 113%.

**Q.** Which viability at 48 h, 1 µM (in vitro; [3]) does the source give for `CC(C)(C)NC(=O)Cn1ccc(=N)c2ccccc21` [MLS000068809-01] here?
**A.** The viability at 48 h, 1 µM was 99%.

**Q.** And the viability at 48 h, 3 µM (in vitro; [3])?
**A.** The viability at 48 h, 3 µM was 97%.

**Q.** Which viability at 66 h (in vitro; [3]) does the source give for `CCOC(=O)Cn1c2c(c(=N)c3c1CCC3)CCC2` [MLS000080129-01] here?
**A.** Its viability at 66 h is 99.5%.

**Q.** Which activity at 1 µM [1, 4] does the source give for `CC(C)c1ccc(O)c(CN2CCN(c3ccccc3)CC2)c1` [MLS000084718-01] here?
**A.** Its activity at 1 µM is 105%.

**Q.** What about the activity at 1 µM [1, 5] of the same compound?
**A.** Its activity at 1 µM is 80%.

**Q.** And the activity at 3 µM [1, 6]?
**A.** Its activity at 3 µM is 97%.

**Q.** And the activity at 3 µM [1, 7]?
**A.** Its activity at 3 µM is 96%.

**Q.** What about the AC50 [2] of the same compound?
**A.** The AC50 was 1.33 µM.

**Q.** Which results are given for `COC(=O)c1cc2sc(Cl)cc2n1CC(=O)Nc1ccc(OC)c(OC)c1OC` [MLS000093488-01]?
**A.** viability at 48 h (in vitro; [3]): 101%; viability at 48 h, 1 µM (in vitro; [3]): 101%

**Q.** With `CCOC(=O)C1=C(C)NC2=C(C(=O)CCC2)C1c1cn(Cc2ccc(Cl)cc2Cl)nc1-c1ccccc1` (stereo not drawn) [MLS000324811-01] as the compound, how does the viability at 48 h, 1 µM (in vitro; [3]) read?
**A.** The viability at 48 h, 1 µM was 106%.

**Q.** What about the viability at 48 h, 3 µM (in vitro; [3]) of the same compound?
**A.** The viability at 48 h, 3 µM was 96%.

**Q.** For `CN(C)S(=O)(=O)Oc1ccsc1C(=O)Nc1cccc(Cl)c1` [MLS000327935-01], which viability (in vitro) is on record?
**A.** The viability was 102%.

**Q.** For `Cc1nn(-c2ccc([N+](=O)[O-])cc2)c2c1C(c1cccc(Br)c1)N1C(=N2)C(=O)Nc2ccccc21` (stereo not drawn) [MLS000331784-01], which viability at 48 h, 1 µM (in vitro; [3]) is on record?
**A.** The viability at 48 h, 1 µM was 105%.

**Q.** What about the viability at 48 h, 3 µM (in vitro; [3]) of the same compound?
**A.** The viability at 48 h, 3 µM was 102%.

**Q.** What does the source list for `Cc1ccc(C(=O)c2oc3ccccc3c2NC(=O)c2cc(-c3cc(C)ccc3O)[nH]n2)cc1` [MLS000331963-01]?
**A.** viability at 48 h, 1 µM (in vitro; [3]): 103%; viability at 48 h, 3 µM (in vitro; [3]): 102%

**Q.** Which viability (in vitro) does the source give for `COc1ccc(-c2c[n+](CC(=O)c3cccs3)c3n2CCC3)cc1` [MLS000333575-01] here?
**A.** The viability was 101%.

**Q.** For `NS(=O)(=O)c1cccc(NC(=O)CSc2nn(-c3ccccc3)c(=S)s2)c1` [MLS000339501-01], which viability at 48 h, 1 µM (in vitro; [3]) is on record?
**A.** Its viability at 48 h, 1 µM is 105%.

**Q.** And the viability at 48 h, 3 µM (in vitro; [3])?
**A.** The viability at 48 h, 3 µM was 100%.

**Q.** For `O=S(=O)(c1ccc(F)cc1)N1CCN(/C(S)=N/Cc2ccco2)CC1` [MLS000409296-01], which viability at 66 h (in vitro; [3]) is on record?
**A.** The viability at 66 h was 103%.

**Q.** With `CCOC(=O)c1nnn(-c2nonc2N)c1-c1ccc(C)cc1` [MLS000519435-01] as the compound, how does the activity at 1 µM [1, 4] read?
**A.** The activity at 1 µM was 122%.

**Q.** And the activity at 1 µM [1, 5]?
**A.** Its activity at 1 µM is 101%.

**Q.** And the activity at 3 µM [1, 6]?
**A.** The activity at 3 µM was 135%.

**Q.** And the activity at 3 µM [1, 7]?
**A.** Its activity at 3 µM is 119%.

**Q.** What about the AC50 ([2]; read-out: AC50) of the same compound?
**A.** Its AC50 is 5.31 µM.

**Q.** Which results are given for `Cc1ccc2c(c1)-c1c(ssc1=S)C(C)(C)N2C(=O)c1ccco1` [MLS000525939-01]?
**A.** viability at 48 h, 1 µM (in vitro; [3]): 100%; viability at 48 h, 3 µM (in vitro; [3]): 100%

**Q.** Which viability at 48 h, 1 µM (in vitro; [3]) does the source give for `CCc1ccc2c(c1)C1(NN=C(c3ccc(C)cc3)S1)C(=O)N2` (stereo not drawn) [MLS000528737-01] here?
**A.** Its viability at 48 h, 1 µM is 115%.

**Q.** What about the viability at 48 h, 3 µM (in vitro; [3]) of the same compound?
**A.** Its viability at 48 h, 3 µM is 80%.

**Q.** For `Oc1c(Br)cc(Br)cc1CN1CCN(Cc2ccccc2)CC1` [MLS000530313-01], which activity at 1 µM [1, 4] is on record?
**A.** The activity at 1 µM was 129%.

**Q.** And the activity at 1 µM [1, 5]?
**A.** Its activity at 1 µM is 112%.

**Q.** And the activity at 3 µM [1, 6]?
**A.** The activity at 3 µM was 102%.

**Q.** What about the activity at 3 µM [1, 7] of the same compound?
**A.** Its activity at 3 µM is 112%.

**Q.** And the AC50 ([2]; read-out: AC50)?
**A.** Its AC50 is 1.06 µM.

**Q.** For `Cc1nc2c(n1C1CCCCC1)C(=O)c1ccccc1C2=O` [MLS000564113-01], which activity at 1 µM [1, 4] is on record?
**A.** Its activity at 1 µM is 95%.

**Q.** What about the activity at 1 µM [1, 5] of the same compound?
**A.** Its activity at 1 µM is 107%.

**Q.** And the activity at 3 µM [1, 6]?
**A.** Its activity at 3 µM is 85%.

**Q.** And the activity at 3 µM [1, 7]?
**A.** Its activity at 3 µM is 94%.

**Q.** With `Cc1ccccc1Nc1nnc(SCc2cc(=O)n3ccsc3n2)s1` [MLS000565690-01] as the compound, how does the viability at 48 h, 1 µM (in vitro; [3]) read?
**A.** The viability at 48 h, 1 µM was 107%.

**Q.** And the viability at 48 h, 3 µM (in vitro; [3])?
**A.** Its viability at 48 h, 3 µM is 101%.

**Q.** With `Cc1ccc(NN=C2C=CC(=O)c3ncccc32)cc1` [MLS000585898-01] as the compound, how does the viability at 48 h, 1 µM (in vitro; [3]) read?
**A.** The viability at 48 h, 1 µM was 93%.

**Q.** What about the viability at 48 h, 3 µM (in vitro; [3]) of the same compound?
**A.** The viability at 48 h, 3 µM was 88%.

**Q.** With `CCOc1ccc2nc(C)cc(Nc3cccc([N+](=O)[O-])c3)c2c1` [MLS000663974-01] as the compound, how does the viability at 66 h (in vitro; [3]) read?
**A.** The viability at 66 h was 102%.

**Q.** What does the source list for `c1cc(Nc2ncnc3sc4c(c23)CCC4)ccn1` [MLS000681348-01]?
**A.** viability at 48 h (in vitro; [3]): 103%; viability at 48 h, 1 µM (in vitro; [3]): 103%

**Q.** Which viability at 48 h, 1 µM (in vitro; [3]) does the source give for `Cc1ccc(-n2nc3c(Cl)nnc(C)c3c2C)cc1` [MLS000698458-01] here?
**A.** The viability at 48 h, 1 µM was 105%.

**Q.** And the viability at 48 h, 3 µM (in vitro; [3])?
**A.** Its viability at 48 h, 3 µM is 104%.

**Q.** What does the source list for `CCOc1cc(CNC(C)C(O)c2ccccc2)cc(Cl)c1OCC` (stereo not drawn) [MLS000701716-01]?
**A.** viability at 48 h, 1 µM (in vitro): 90%; viability at 48 h, 3 µM (in vitro): 88%

**Q.** With `CCOC(=O)Cn1c2c(c(=N)c3c1CCC3)CCCC2` [MLS000702567-01] as the compound, how does the viability at 66 h (in vitro; [3]) read?
**A.** Its viability at 66 h is 106%.

**Q.** With `Cc1ccc(-c2nc(CN3CCCCC3)cc(CN3CCCCC3)c2O)cc1` [MLS000713293-01] as the compound, how does the viability at 48 h (in vitro; [3]) read?
**A.** The viability at 48 h was 101%.

**Q.** And the viability at 48 h, 1 µM (in vitro; [3])?
**A.** Its viability at 48 h, 1 µM is 101%.

**Q.** With `Cc1cccc(CSc2nn3c(=O)c(C)nnc3s2)c1` [MLS000724933-01] as the compound, how does the viability at 48 h, 1 µM (in vitro; [3]) read?
**A.** Its viability at 48 h, 1 µM is 115%.

**Q.** And the viability at 48 h, 3 µM (in vitro; [3])?
**A.** Its viability at 48 h, 3 µM is 100%.

**Q.** With `Cc1ccc(CN(C)C(=O)c2cc(COc3ccc(F)cc3Cl)on2)o1` [MLS000734222-01] as the compound, how does the viability at 66 h (in vitro; [3]) read?
**A.** The viability at 66 h was 101%.
